The values that follow come from article PMC9896555, “Cyclic Acetals as Novel Long-Lasting Mosquito Repellents” (Journal of Agricultural and Food Chemistry, 2023).

For data set [1], the system named is Aedes albopictus. Briefly: Protection time at 0.17 mg/cm2, human-bait technique. Format: in vivo. To be noted: for pest or weed control at 0.17 mg/cm2, 0.17 mg/cm2: Aedes albopictus, topical, read-out: Protection time PE%; for Average PT >95% (% coefficient of variation) / Estimated 100% PT (complete protection time, mean±SE): at the dose of 0.17mg/cm2; for Estimated 100% PT (complete protection time, mean±SE): Kaplan–Meier estimate. Put shortly:
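Human-bait test with 100 μL of 5% ethanol solution applied to skin (0.17 mg/cm2); ethanol-treated hand as negative control. Repellency checked hourly up to 8 h on up to 8 volunteers; protection time taken as mean time with >95% protection, complete protection time estimated by Kaplan–Meier.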

Another data set deals with Caco-2 monolayer. The data set can be described thus: Transwell permeation test. Format: in vitro ADME. To be noted: 82 μg/mL apical, 3 h. The method, then:
To evaluate the possibility of absorption after topical application, we tested the permeation through a Caco-2 monolayer for those compounds best performing in terms of protection time and cytotoxicity. The colorectal adenocarcinoma cell line Caco-2 was purchased from ATCC and cultured in DMEM with 20% FBS, L-glutamine (2 mM), and 1% penicillin–streptomycin 100 U/mL (Thermo Fisher Scientific, Rodano, Milan, Italy) in 5% CO2 at 37 °C.
For the permeation studies, Caco-2 cells, a model of epithelial cells, were seeded into 12-well PET Transwell plates (1.13 cm^2 growth surface area and pore size 0.4 μm, Greiner Bio-One, Milan, Italy) at a density of 2 × 10^5 cells/cm^2 and grown for 21 days to form a confluent monolayer. The integrity of the cellular barrier was then assessed using Lucifer Yellow (LY) permeability test, before the experiments.[33]
After washing, the monolayers were preincubated for 20 min at 37 °C with 0.5 and 1.5 mL of the incubation medium, HBSS/HEPES 25 mM in the apical and basolateral sides, respectively. […] At the end of the experiment, the layer integrity was re-evaluated. […]
One hundred microliters of the collected media was extracted in 100 μL of heptane by vortexing the vial for 2 min; 70 μL of this solution was recovered; and 1 μL was injected in a 7820 GC system-5977B MSD system and analyzed under the same conditions reported in paragraph 2.2. […]

The subject of a further data set is RAW 264.7. The data set can be described thus: Immunogenicity on murine macrophages (nitric oxide release). Format: cell-based. To be noted: for immunogenicity (nitric oxide release / nitrite production), in words: RAW264.7, 82 μg/mL, 6 h. The method, then:
Cells were cultured in DMEM, with 10% FBS, 1% L-glutamine (2 mM), and 1% penicillin–streptomycin 100 U/mL at 37 °C in an atmosphere containing 5% CO2. RAW264.7 were seeded (1 × 10^5 cells/well) and exposed to five derivatives or Icaridin, at 82 μg/mL or to LPS (1 μg/mL) as a positive control, for 3 and 6 h. After that, nitric oxide release was determined in the culture media as previously described.[32] Experiments were performed in triplicate.

For another data set, the system named is HaCaT cells. The data set can be described thus: Cytotoxicity on human keratinocytes (MTS). The note with it: 82 μg/mL, 24 h. The data set is classed as cell-based. The method, then: HaCaT cells were cultured in 5% CO2 at 37 °C in Dulbecco’s modified Eagle’s medium (DMEM), supplemented with 10% fetal bovine serum (FBS), 1% L-glutamine ([…]), and 1% penicillin–streptomycin (Thermo Fisher Scientific, Rodano, Milan, Italy). […] Experiments were performed in triplicate.

Data set [2] relates to Aedes albopictus. Briefly: Effective dose / protection efficacy, human-bait technique. The data set is classed as in vivo. The note with it: for pest or weed control at 0.081 µg/cm2, 0.081 µg/cm2 / pest or weed control at 0.17 µg/cm2, 0.17 µg/cm2 / pest or weed control at 0.33 µg/cm2, 0.33 µg/cm2 / pest or weed control at 0.5 µg/cm2, 0.5 µg/cm2 / pest or weed control at 0.83 µg/cm2, 0.83 µg/cm2 / pest or weed control at 1.7 µg/cm2, 1.7 µg/cm2 / pest or weed control at 8.3 µg/cm2, 8.3 µg/cm2 / pest or weed control at 16.7 µg/cm2, 16.7 µg/cm2 / pest or weed control at 83.3 µg/cm2, 83.3 µg/cm2: Aedes albopictus, topical, read-out: Protection efficacy PE%. The method, then:
The repellence of DEET, Icaridin (both supplied by Istituto Biochimico VEBI s.r.l.), acetals, and the synthesized hydroxyacetals was evaluated againstAedes albopictususing the human-bait technique (to simulate the condition of human skin on which repellents will be applied).[22]A. albopictuswas reared and tested at 26 ± 2 °C, ≥60 ± 10% relative humidity (RH), and at 14:10 h light/dark photoperiod, within Plexiglas cylindrical laboratory cages (35 cm diameter, 60 cm length) with one end closed by a net. During the tests, cages contained ≈150 nulliparous, 4–7 day-old, nonblood-fed females. For each compound to be tested, up to six volunteers participated in the trial.
The study was approved by the Regional Ethics Committee for Clinical Trials of Tuscany Region with the registered number 20383. Volunteers agreed to take part in the experiments following informed consent; only volunteers non-allergic to mosquito bites participated in the trials. On the day of the bioassay, they had no contact with lotions, perfumes, oils, or perfumed soaps. They wore latex surgical gloves, in which a dorsal square area of 30 cm^2 was cut open. Mosquito-exposed skin was treated with 50 μL of ethanol, as the negative hand control. The other hand was treated with 50 μL of the tested compounds in ethanol solution (dosages corresponding to 0.081, 0.17, 0.33, 0.5, 0.83, 1.7, 8.3, 16.7, and 83.3 μg/cm^2). Both hands were presented in the same test cage. The number of probing mosquitoes in a 3 min exposure period was recorded. During each test, the control and the treated hand were presented interchanged to verify the mosquitoes’ readiness to bite. Trials were considered valid only if at least 30 mosquitoes performed probing behavior on the control hand before each repellent dosage was tested. The protection efficacy (PE %) obtained from all replicates was calculated, according to the WHO guidelines[31] using this formula [drawing 1]
To evaluate the protection efficacy, volunteers applied increasing doses of the compounds to the skin on the back of their hands (30 cm^2, while the rest was covered with a rubber glove) and counted the number of mosquitoes attempting to bite; the solvent only was used on the control hand. The protection (percentage of repelled mosquitoes) was calculated as reported in the Material and Methods section.

“And” between values parts separate entries of the source, which are not always exact repeats. Equal values may be shown once. “Also recorded” adds a separate entry of the source. Read-outs that look alike come from different tables or passages of the source. Some results are limits rather than exact numbers.

Turning to `CC(C)CC1(CC(C)C)OCC(C)(CO)CO1` [17b], the pest or weed control at 0.17 mg/cm2, 0.17 mg/cm2 worked out at 100% in the data set on Aedes albopictus [1] (0.17mg/cm2, 1 h); 98.7% with Aedes albopictus [1] (0.17mg/cm2, 2 h); 99.1% with Aedes albopictus [1] (0.17mg/cm2, 3 h); 100% in the data set with Aedes albopictus [1] (0.17mg/cm2, 4 h); 96.8% in the data set with Aedes albopictus [1] (0.17mg/cm2, 5 h); 93.6% in the data set on Aedes albopictus [1] (0.17mg/cm2, 6 h). Besides, the pest or weed control at 0.17 mg/cm2, 0.17 mg/cm2 is 95.6% in the data set with Aedes albopictus [1] (0.17mg/cm2, 7 h) and 96.5% in the data set on Aedes albopictus [1] (0.17mg/cm2, 8 h). Besides, the “Average PT >95% (% coefficient of variation)” value in the data set on Aedes albopictus [1] is 480 (5.0) min. Also, in the data set on Aedes albopictus [1], the “Estimated 100% PT (complete protection time, mean±SE)” value was 300 ± 94 min. Moreover, the “Protection time (95% protection)” value in the data set with Aedes albopictus [1] (dose of 0.17 mg/cm^2, tests ended after 8 h) is 8 h. Also, in the data set on Caco-2 monolayer, the “permeability value lower compared to Icaridin” value is reported as 17%. The “immunogenicity (nitric oxide release / nitrite production), in words” value in the data set on RAW 264.7 is listed as “did not exhibit immunogenicity; also recorded: indistinguishable from the negative control”. Besides, in the data set with HaCaT cells, the survival of keratocytes is > 88% and 92%. In addition, the pest or weed control at 0.081 µg/cm2, 0.081 µg/cm2 with Aedes albopictus [2] (0.081 µg/cm2) is 8.33%. Moreover, the pest or weed control at 0.17 µg/cm2, 0.17 µg/cm2 in the data set with Aedes albopictus [2] (0.17 µg/cm2) worked out at 27.8%. In addition, in the data set on Aedes albopictus [2] (0.33 µg/cm2), the pest or weed control at 0.33 µg/cm2, 0.33 µg/cm2 is 50.8%. For the same compound, the pest or weed control at 0.5 µg/cm2, 0.5 µg/cm2 in the data set on Aedes albopictus [2] (0.5 µg/cm2) was determined as 44.4%. Further, the pest or weed control at 0.83 µg/cm2, 0.83 µg/cm2 in the data set on Aedes albopictus [2] (0.83 µg/cm2) came to 58.1%. For the same compound, in the data set with Aedes albopictus [2] (1.7 µg/cm2), the pest or weed control at 1.7 µg/cm2, 1.7 µg/cm2 amounted to 94.8%. Further, in the data set with Aedes albopictus [2] (8.3 µg/cm2), the pest or weed control at 8.3 µg/cm2, 8.3 µg/cm2 amounted to 100%. Moreover, the pest or weed control at 16.7 µg/cm2, 16.7 µg/cm2 in the data set on Aedes albopictus [2] (16.7 µg/cm2) amounted to 100%. In addition, the pest or weed control at 83.3 µg/cm2, 83.3 µg/cm2 in the data set with Aedes albopictus [2] (83.3 µg/cm2) was determined as 100%. Moreover, the “Protection efficacy (dose to obtain complete protection (100%) from bite attempts)” value with Aedes albopictus [2] (applied on skin of volunteers, 3 min exposure) turned out to be 8.3 μg/cm^2.

On to `CCC(C)OC(=O)N1CCCCC1CCO` (stereo not drawn) [Icaridin, reference compound], for which the “Protection time PE%” value in the data set with Aedes albopictus [1] (0.17mg/cm2, 0 min) is 100%. Also, the pest or weed control at 0.17 mg/cm2, 0.17 mg/cm2 in the data set on Aedes albopictus [1] (1 h) came out at 100%. Further, the pest or weed control at 0.17 mg/cm2, 0.17 mg/cm2 in the data set on Aedes albopictus [1] (2 h) was determined as 100%. The pest or weed control at 0.17 mg/cm2, 0.17 mg/cm2 in the data set on Aedes albopictus [1] (3 h) was 99.5%. The pest or weed control at 0.17 mg/cm2, 0.17 mg/cm2 in the data set on Aedes albopictus [1] (4 h) came to 99.5%. In the data set with Aedes albopictus [1] (5 h), the pest or weed control at 0.17 mg/cm2, 0.17 mg/cm2 is 99.8%. The pest or weed control at 0.17 mg/cm2, 0.17 mg/cm2 in the data set on Aedes albopictus [1] (6 h) stood at 98.7%. For the same compound, in the data set on Aedes albopictus [1] (7 h), the pest or weed control at 0.17 mg/cm2, 0.17 mg/cm2 was determined as 98.7%. In addition, the pest or weed control at 0.17 mg/cm2, 0.17 mg/cm2 in the data set on Aedes albopictus [1] (8 h) came out at 97.6%. In the data set on Aedes albopictus [1], the “Average PT >95% (% coefficient of variation)” value is 480 (2.2) min and the “Estimated 100% PT (complete protection time, mean±SE)” value was 370 ± 52 min. The “immunogenicity (nitric oxide release / nitrite production), in words” value with RAW 264.7 is on record as “three-time increase in the nitrite production compared to the control treatment”. Further, the “production of nitrite as compared to the positive control” value in the data set with RAW 264.7 (RAW264.7, positive control LPS 1 μg/mL) was found to be 40%. In the data set on HaCaT cells, this compound came in with a survival of keratocytes of 91%. Further, in the data set on Aedes albopictus [2], the pest or weed control at 0.081 µg/cm2, 0.081 µg/cm2 was 42.4%; the pest or weed control at 0.17 µg/cm2, 0.17 µg/cm2 was determined as 53.7%; the pest or weed control at 0.33 µg/cm2, 0.33 µg/cm2 worked out at 61.8%; the pest or weed control at 0.5 µg/cm2, 0.5 µg/cm2 came to 77.8%. For the same compound, in the data set on Aedes albopictus [2], the pest or weed control at 0.83 µg/cm2, 0.83 µg/cm2 is 69.3%; the pest or weed control at 1.7 µg/cm2, 1.7 µg/cm2 was determined as 99.6%; the pest or weed control at 8.3 µg/cm2, 8.3 µg/cm2 is 100%; the pest or weed control at 16.7 µg/cm2, 16.7 µg/cm2 was found to be 100%. In addition, the pest or weed control at 83.3 µg/cm2, 83.3 µg/cm2 in the data set with Aedes albopictus [2] was 100%. Besides, the “100% PE” value with Aedes albopictus [2] (Table S1) came to 8.3 µg/cm2.
